In patent US20260033466A1, “METHOD AND ANIMAL MODEL FOR INDUCING BCC TUMORS” (FELDAN BIO INC., priority 2022, published 2026):

Tests used:
BCC tumors = assay: Anti-BCC treatment of induced BCC mice (tamoxifen/doxycycline and UV-B); format: in vivo, mouse; details: begun 37-43 weeks post-induction
[1] = tested on: GFP (indicative of Ptch1 and p53 shRNA expression); assay: Immunofluorescence of GFP in skin of BCC mice after induction, no UV-B; format: in vivo, mouse; details: absence of UV, fluorescence microscopy of skin sections, FIG. 4
Protocol: Positive GFP fluorescence is indicative of Ptch1 and p53 shRNA expression. […] Positive GFP fluorescence is indicative of Ptch1 and p53 shRNA expression.
For histological staining by immunofluorescence, sections were incubated 5 minutes in room temperature PBS to remove the OCT compound and then drained as much as possible. Slides were then blocked in BSA 3% and stained with anti-GFP antibody (ab6556 Abcam) or anti-Ptch1 (ThermoFisher PA5-87508) or anti-CK14 (BioLegend™ #906004) O/N at 4° C. Sections were then washed thrice (5 minutes each) with PBST and incubated with fluorophore-conjugated antibodies. Following washes (3×5 minutes), 100 μL per slide of ProLong™ Glass NucBlue™ (Invitrogen™) were applied and a coverslip. Slides were incubated overnight in the dark prior to imaging. Slides were imaged within 1-4 days after mounting and left in the dark until that time.
Next, shRNA expression was assessed in the skin of mice, either untreated, or after induction with either tamoxifen alone, doxycycline alone, or tamoxifen/doxycycline in the absence of UV.

mouse Ptch1 = assay: shRNA knockdown efficiency reporter assay (Yuan et al. 2014); format: cell-based; details: Ptch1 mRNA expression normalized to shRen713 (positive control); FIG. 2
Protocol: Knockdown efficiency was calculated by Ptch1 mRNA expression normalized to shRen713 ([…]).
Knockdown efficiency was calculated by Ptch1 mRNA expression normalized to shRen713 ([…]), a reporter shRNA targeting Renilla Luciferase 713.

CO[C@H]1C[C@@H]2CC[C@@H](C)[C@@](O)(O2)C(=O)C(=O)N2CCCC[C@H]2C(=O)O[C@H]([C@H](C)C[C@@H]2CC[C@@H](OCCO)[C@H](OC)C2)CC(=O)[C@H](C)/C=C(\C)[C@@H](O)[C@@H](OC)C(=O)[C@H](C)C[C@H](C)/C=C/C=C/C=C/1C [everolimus]
tumor appearance (scabbing/crusting) (BCC tumors; i.p. 3 mg/kg, after 7-12 days of treatment, FIG. 13): visible signs of scabbing/crusting of the tumors

CC/C(=C(\c1ccccc1)c1ccc(OCCN(C)C)cc1)c1ccccc1 [tamoxifen]
GFP expression in skin (shRNAs targeting Ptch1 and p53) [1]: no expression of GFP

CS(=O)(=O)c1ccc(C(=O)Nc2ccc(Cl)c(-c3ccccn3)c2)c(Cl)c1 [vismodegib]
tumor appearance (scabbing/crusting) (BCC tumors; oral daily via gastric gavage 5 mg/kg, after 18-25 days of treatment, FIG. 12): visible signs of scabbing/crusting of the tumors

B1: Ptch1.2559: shRNA targeting mouse Ptch1, nucleobases 2776-2796 of SEQ ID NO: 12; selected for the BCC model (nucleic acid)
guide: TCATGCCAAACAATTATAAAATAGTGAAGCCACAGATGTATTTTATAATTGTTTGGCATGA
knockdown efficiency (mouse Ptch1): 101.24%
